pEC50: −log10 of the molar value.

Conditions in all cases: Homo sapiens
Assay [1] concerns MT4. In words: Concentration required to protect MT-4 cells against the cytopathogenicity of HIV-1 (IIIB/LAI). The assay is classed as functional, cell-based. In general terms: Damage to the host cells serves as the signal in cytopathic effect assays.
Assay [2] concerns MT4. In words: Concentration required to protect MT-4 cells against the cytopathogenicity of HIV-2 (ROD). The assay is classed as functional, cell-based.
The subject of assay [3] is MT4. In words: Cytotoxic concentration required to reduce the viability of MT-4 cells by 50%. The assay is classed as functional.

As for `CCN1CCCCC1C12CC3CC(CC(C3)C1)C2` (configuration not stated), the pEC50 in assay [1] and in assay [2] was less than 3.38 each time. In addition, half-maximal cytotoxicity in assay [3] (CC50) was put at 417 µM.

In the case of `O=C(Nc1ccc(Cl)cc1)N1CCCCC1C12CC3CC(CC(C3)C1)C2` (configuration not stated), the pEC50 in assay [1] and in assay [2] was less than 4.89 in each case. Moreover, the CC50 (commonly the concentration at which the toxic effect on the cells reaches its halfway point) in assay [3] stood at 12.6 µM.

On to `C1CCC(C23CC4CC(CC(C4)C2)C3)NC1` (configuration not stated), for which the pEC50 in assay [1] and in assay [2] was less than 3.39 in each case. For the same compound, half-maximal cytotoxicity in assay [3] (CC50) was put at 403 µM.

For `CN(C)CCN1CCCCC1C12CC3CC(CC(C3)C1)C2` (configuration not stated), the results for the pEC50 in assay [1] and in assay [2] were 4.39 and less than 3.56, respectively. Also, in assay [3], half-maximal cytotoxicity (CC50) was put at 274 µM.

Consider `C1CCN(CC2CC2)C(C23CC4CC(CC(C4)C2)C3)C1` (configuration not stated), for which the figures for the pEC50 in assay [1] and in assay [2] were 4.12 and less than 3.58, respectively. In assay [3], the 50% cytotoxic concentration (CC50) worked out at 263 µM.

Consider `c1ccc(CN2CCCCC2C23CC4CC(CC(C4)C2)C3)cc1` (configuration not stated), for which the pEC50 in assay [1] and in assay [2] was less than 4.19 in each case. Further, in assay [3], the CC50 was 62.7 µM.

On to `C1CCN(CCN2CCCCC2C23CC4CC(CC(C4)C2)C3)CC1` (configuration not stated), for which the pEC50 (usually the negative decadic logarithm of the EC50, by convention in mol/L) in assay [1] is 5.44; in assay [2], less than 4.27. The midpoint of cytotoxicity in assay [3], the CC50, lay at 52.6 µM.

Take `CN1CCCCC1C12CC3CC(CC(C3)C1)C2` (configuration not stated): the negative-log EC50 (pEC50) in assay [1] and in assay [2] was less than 3.38 in each case. Also, in assay [3], the CC50 amounted to 413 µM.

Consider `S=C(Nc1ccc(Cl)cc1Cl)N1CCCCC1C12CC3CC(CC(C3)C1)C2` (configuration not stated), for which the pEC50 in assay [1] and in assay [2] was less than 4.72 in each case. For the same compound, the midpoint of cytotoxicity in assay [3], the CC50, lay at 17.7 µM.

The values are drawn from ChEMBL document CHEMBL1130489, “Synthesis and anti-HIV activity of some new aminoadamantane heterocycles” (Bioorg Med Chem Lett, 1997).
